Among the data in patent US8802861B2, “Thiazole derivatives and use thereof” (Merck Serono SA, priority 2004, dated 2014) are IC50 values, retold here.

In the first experiment the test system is Class I PI3-kinases.
Assay: not given
Particulars: Fruman et al., 1998; read-out: IC50 against each of the various Class I PI3-kinases; cited from earlier work.
The term IC50 denotes the point on the concentration scale where inhibition reaches its midpoint. Take `COC[C@H]1OC(=O)c2coc3c2[C@@]1(C)C1=C(C3=O)[C@@H]2CCC(=O)[C@@]2(C)C[C@H]1OC(C)=O` [wortmannin]: the IC50 was 1 to 10 nM.

Another experiment deals with Akt/PKB phosphorylation in Raw 264-7 macrophages. The experiment can be described thus: Cell based ELISA to monitor PI3K inhibition (Akt/PKB phosphorylation after Complement 5a stimulation). Particulars: Mus musculus, RAW264.7, read-out: Cell Assay (P-Akt, Elisa) IC50 [μM]. The procedure: b) Cell Based ELISA to Monitor PI3K Inhibition:
The efficacy of compounds of the invention in inhibiting the PI3K induced AKt/PKB phosphorylation may be tested in the following cell based assay.
Measurement of Akt/PKB phosphorylation in macrophages after stimulation with Complement 5a: Raw 264: Raw 264-7 macrophages (cultured in DMEM-F12 medium containing 10% Fetal Calf serum and antibiotics) are plated at 20'000 cells/well in a 96 MTP 24 h before cell stimulation. Previous to the stimulation with 50 nM of Complement 5a during 5 minutes, Cells are serum starved for 2 h, and pretreated with inhibitors for 20 minutes. After stimulation cells are fixed in 4% formaldehyde for 20 minutes and washed 3 times in PBS containing 1% Triton X-100 (PBS/Triton). Endogenous peroxidase is blocked by a 20 minutes incubation in 0.6% H2O2 and 0.1% Sodium Azide in PBS/Triton and washed 3 times in PBS/Triton. Cells are then blocked by 60 minutes incubation with 10% fetal calf serum in PBS/Triton. Next, phosphorylated AKt/PKB is detected by an overnight incubation at 4° C. with first antibody (anti phospho Serine 473 Akt IHC, Cell Signaling) diluted 800-fold in PBS/Triton, containing 5% bovine serum albumin (BSA). After 3 washes in PBS/Triton, cells are incubated for 60 minutes with a peroxidase conjugated goat-anti-rabbit antibody (1/400 dilution in PBS/Triton, containing 5% BSA), washed 3 times in PBS/Triton, and 2 times in PBS and further incubated in 100 μl of substrate reagent solution (R&D) for 20 minutes. The reaction is stopped by addition of 50 μl of 1 M SO4H2 and absorbance is read at 450 nm.
The values indicated in Table II below reflect the percentage of inhibition of AKT phoshorylation as compared to basal level. Said values show a clear effect of the thiazole compounds on the activation of AKT phosphorylation in macrophages.
(In an ELISA, binding on a coated surface is turned into a signal by an enzyme label.)
For `CC(=O)Nc1nc(C)c(-c2csc(Nc3cccc(-c4nnc(O)o4)c3)n2)s1` [Example 53, N-(2-{[3-(5-hydroxy-1,3,4-oxadiazol-2-yl)phenyl]amino}-4′-methyl-4,5′-bi-1,3-thiazol-2′-yl)acetamide], the concentration for half-maximal inhibition (IC50) amounted to 1.51 µM.

Staying with this experiment, now noted: Mus musculus, RAW264.7; Raw 264-7 macrophages, 50 nM Complement 5a; read-out: Cell Assay (P-Akt, Elisa) IC50.
On to `CC(=O)Nc1nc(C)c(-c2csc(Nc3ccc(Cl)nc3)n2)s1` [Example 24, N-{2-[(6-chloropyridin-3-yl)amino]-4-methyl-4,5-bi-1,3-thiazol-2-yl}acetamide], for which the IC50 was found to be 0.66 µM.

Take `CC(=O)Nc1nc(C)c(-c2csc(Nc3cccnc3)n2)s1` [Example 7, N-[4-methyl-2-(Pyridin-3-ylamino)-4,5-bi-1,3-thiazol-2-yl]acetamid]: the IC50 came to 1.64 µM.

In the case of `CC(=O)Nc1nc(C)c(-c2csc(Nc3cccc(C(=O)O)c3)n2)s1` [Example 1], the IC50 worked out at 3.18 µM. `CC(=O)Nc1nc(C)c(-c2csc(NCCC(N)=O)n2)s1` [Example 84]: the IC50 came to 1.84 µM.

The target of a further experiment is PI3Kγ (Homo sapiens (Human), UniProt P48736). The experiment can be described thus: High Throughput PI3K Lipid Kinase Assay (scintillation proximity assay). Particulars: Human recombinant GST-PI3Kγ, SPA. It is filed as biochemical. An excerpt: a) High Throughput PI3K Lipid Kinase Assay (Binding Assay): The efficacy of compounds of the invention in inhibiting the PI3K induced-lipid phosphorylation may be tested in the following binding assay. The assay combines the scintillation proximity assay technology (SPA, Amersham) with the capacity of neomycin (a polycationic antibiotic) to bind phospholipids with high affinity and specificity. The Scintillation Proximity Assay is based on the properties of weakly emitting isotopes (such as ^3H, ^125I, ^33P). Coating SPA beads with neomycin allows the detection of phosphorylated lipid substrates after incubation with recombinant PI3K and radioactive ATP in the same well, by capturing the radioactive phospholipids to the SPA beads through their specific binding to neomycin. […] After incubation at room temperature for 180 minutes, with gentle agitation, the reaction is stopped by addition of 60 μl of a solution containing 100 μg of neomycin-coated PVT SPA beads in PBS containing ATP 10 mM and EDTA 5 mM. The assay is further incubated at room temperature for 60 minutes with gentle agitation to allow binding of phospholipids to neomycin-SPA beads. After precipitation of the neomycin-coated PVT SPA beads for 5 minutes at 1500×g, radioactive PtdIns(3)P is quantified by scintillation counting in a Wallac MicroBetaTM plate counter. The values indicated in Table I below refer to the IC50 (nM) with respect to PI3Kγ, i.e. the amount necessary to achieve 50% inhibition of said target. Said values show a considerable inhibitory potency of thiazole compounds with regard to PI3Kγ.
Sequence of PI3Kγ (P48736 whole entry): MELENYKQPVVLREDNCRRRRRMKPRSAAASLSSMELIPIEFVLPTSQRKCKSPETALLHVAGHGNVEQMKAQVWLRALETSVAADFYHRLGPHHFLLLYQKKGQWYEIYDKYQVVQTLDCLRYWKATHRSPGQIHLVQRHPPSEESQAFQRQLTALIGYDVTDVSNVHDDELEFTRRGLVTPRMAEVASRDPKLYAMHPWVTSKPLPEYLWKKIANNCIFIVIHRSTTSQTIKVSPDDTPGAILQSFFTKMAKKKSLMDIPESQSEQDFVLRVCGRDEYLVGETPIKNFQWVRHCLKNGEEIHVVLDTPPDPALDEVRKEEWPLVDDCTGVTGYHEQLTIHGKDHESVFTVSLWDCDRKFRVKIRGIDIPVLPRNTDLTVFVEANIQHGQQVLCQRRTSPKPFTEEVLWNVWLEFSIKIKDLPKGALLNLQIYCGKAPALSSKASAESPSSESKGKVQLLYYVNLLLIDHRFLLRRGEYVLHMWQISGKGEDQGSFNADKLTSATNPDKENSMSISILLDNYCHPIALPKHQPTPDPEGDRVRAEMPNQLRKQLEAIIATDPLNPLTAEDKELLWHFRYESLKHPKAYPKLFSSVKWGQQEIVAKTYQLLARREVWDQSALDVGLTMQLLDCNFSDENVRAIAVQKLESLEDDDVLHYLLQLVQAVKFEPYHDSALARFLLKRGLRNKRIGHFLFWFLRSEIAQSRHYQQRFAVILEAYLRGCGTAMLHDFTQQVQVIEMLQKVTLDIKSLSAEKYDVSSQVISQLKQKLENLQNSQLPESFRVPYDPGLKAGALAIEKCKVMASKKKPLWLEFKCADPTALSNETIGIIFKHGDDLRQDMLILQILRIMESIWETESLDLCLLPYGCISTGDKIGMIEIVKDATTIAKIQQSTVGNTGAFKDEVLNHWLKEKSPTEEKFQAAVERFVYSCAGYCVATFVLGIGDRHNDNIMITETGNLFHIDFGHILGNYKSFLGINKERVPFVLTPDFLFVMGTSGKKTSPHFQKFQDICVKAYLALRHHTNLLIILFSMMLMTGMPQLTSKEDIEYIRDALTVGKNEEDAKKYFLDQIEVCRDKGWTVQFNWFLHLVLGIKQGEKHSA
Background: In a scintillation proximity assay essentially only radioactivity close to the scintillant gives light.
`COCCNc1nc(-c2sc(NC(C)=O)nc2C)cs1` [Example 33, N-{2-[(2-methoxyethyl)amino]-4-methyl-4,5-bi-1,3-thiazol-2-yl}acetamide]: the IC50 was determined as 355 nM. As to `CC(=O)Nc1nc(C)c(-c2csc(NCCc3nnc(O)o3)n2)s1` [Example 56, 5-(2-{[2′-(acetylamino)-4′-methyl-4,5′-bi-1,3-thiazol-2-yl]amino}ethyl)-1,3,4-oxadiazol-2-olate], the IC50 came out at 377 nM.

As for `CC(=O)Nc1nc(C)c(-c2csc(N3CCCCC3)n2)s1` [Example 5, N-(4-methyl-2-piperidin-1-yl-4,5-bi-1,3-thiazol-2-yl)acetamide], the IC50 was 630 nM. As to `CC(=O)Nc1nc(C)c(-c2csc(NC(C)(C)C)n2)s1` [Example 22, N-[2-(tert-butylamino)-4-methyl-4,5-bi-1,3-thiazol-2-yl]acetamide], the IC50 came out at 314 nM. Consider `CC(=O)Nc1nc(C)c(-c2csc(N3CCOCC3)n2)s1` [Example 16, N-(4-methyl-2-morpholin-4-yl-4,5-bi-1,3-thiazol-2-yl)acetamide], for which the IC50 is 844 nM. As for `CC(=O)Nc1nc(C)c(-c2csc(Nc3cccnc3F)n2)s1` [Example 43, N-{2-[(2-fluoropyridin-3-yl)amino]-4′-methyl-4,5′-bi-1,3-thiazol-2′-yl}acetamide], the IC50 was determined as 38 nM. For the molecule `C=CCNc1nc(-c2sc(NC(C)=O)nc2C)cs1` [Example 6, N-[2-(allylamino)-4-methyl-4,5-bi-1,3-thiazol-2-yl]acetamide], the concentration for half-maximal inhibition (IC50) is 202 nM. For `CC(=O)Nc1nc(C)c(-c2csc(Nc3cccnc3)n2)s1` [Example 7, N-[4-methyl-2-(Pyridin-3-ylamino)-4,5-bi-1,3-thiazol-2-yl]acetamid], the IC50 worked out at 94 nM.

As for `CC(=O)Nc1nc(C)c(-c2csc(NCC(O)c3ccccc3)n2)s1` (centres unmarked) [Example 37, N-{2-[(2-hydroxy-2-phenylethyl)amino]-4-methyl-4,5-bi-1,3-thiazol-2-yl}acetamide], the IC50 turned out to be 70 nM. Regarding `CCOC(CCNc1nc(-c2sc(NC(C)=O)nc2C)cs1)OCC` [Example 45, N-{2-[(3,3-diethoxypropyl)amino]-4′-methyl-4,5′-bi-1,3-thiazol-2′-yl}acetamide], the IC50 worked out at 612 nM.

As to `CC(=O)NCCNc1nc(-c2sc(NC(C)=O)nc2C)cs1` [Example 77, N-(2-{[2-(acetylamino)ethyl]amino}-4′-methyl-4,5′-bi-1,3-thiazol-2′-yl)acetamide], the IC50 worked out at 189 nM.

For `CC(=O)Nc1nc(C)c(-c2csc(N)n2)s1` [Example 14, N-(2-amino-4-methyl-4,5-bi-1,3-thiazol-2-yl)acetamide], the IC50 was 575 nM. For the molecule `CC(=O)Nc1nc(C)c(-c2csc(NCCN3CCOCC3)n2)s1` [Example 31, N-{4-methyl-2-[(2-morpholin-4-ylethyl)amino]-4,5-bi-1,3-thiazol-2-yl}acetamide], the IC50 turned out to be 871 nM.

`CC(=O)Nc1nc(C)c(-c2csc(Nc3cccc(CCC(=O)O)c3)n2)s1` [Example 136, 3-(3-{[2′-(acetylamino)-4′-methyl-4,5′-bi-1,3-thiazol-2-yl]amino}phenyl) propanoic acid]: the IC50 stood at 64 nM.
